Experimental data taken from patent publication US20110002843A1, “METHOD OF DETECTING MYOCARDIAL DYSFUNCTION IN PATIENTS HAVING A HISTORY OF ASTHMA OR BRONCHOSPASM” (priority 2005, published 2011).

Experiment: Dose-selection study of coronary hyperemia (CBFV by Doppler guide wire) in non-asthmatic patients at cardiac catheterization
Conditions: for % of CBFVR at peak Mean ± SD: CBFVR set by IC adenosine
Description: Coronary blood flow velocity reserve (CBFVR) was established by intracoronary (IC) bolus injections of adenosine just prior to administration of binodenoson to allow a direct comparison of the magnitude of responses.
Patients presenting for cardiac catheterization were screened for eligibility and provided informed consent prior to sedation. Final eligibility was determined by the investigator during diagnostic catheterization.
Following completion of the diagnostic catheterization procedure and confirmation of all eligibility criteria, the Doppler guide wire was introduced into an accessible coronary artery and manipulated until a stable signal was obtained.
Drug administration: All usual catheterization procedural medications including IC nitroglycerin, heparin, anxiolytics and analgesics, were allowed. […] Binodenoson doses were then introduced into a peripheral vein via an indwelling catheter.
Measurements: Coronary blood flow velocity (CBFV) was measured as continuous pulsatile (systolic and diastolic) velocity (cm/sec) with the Doppler guide wire introduced via a guiding catheter. HR was derived from the ECG signal. SBP and diastolic blood pressure (DBP) were recorded directly from the catheter sheath. For each IC adenosine injection, CBFVR was calculated by dividing the peak post-injection CBFV value by the respective baseline CBFV value. Each patient's maximal calculated CBFVR was used as a benchmark to which CBFV responses to binodenoson were compared. For each binodenoson dose, baseline CBFV (post-IC adenosine), peak CBFV, time following dose start time to achieve peak CBFV and percents of CBFVR (calculated as the ratio of CBFV change from baseline following binodenoson administration vs CBFVR) at each point were calculated. Rate pressure product (RPP) and coronary vascular resistance (CVR) were derived at each time point (see formulas in Table 10). […] Vital signs were measured again approximately 3 to 4 hours after dosing or prior to hospital discharge. Patients returned for a follow-up visit 2 to 4 days following catheterization that included vital signs, an abbreviated physical examination, a 12-lead ECG, blood chemistry and hematology assessments and an assessment of any late-emerging adverse events.
Adverse events were monitored throughout the study.
Statistical analyses: All pharmacodynamic and safety data were analyzed using the intent-to-treat (ITT) population, which included all patients who received any amount of study drug. A paired t test was used to assess the significance of within-treatment differences (peak vs baseline) in CBFV, vital signs and calculated CVR and RPP; repeated comparisons were corrected using the Bonferroni-Holm method. The statistical significance of differences among treatment groups was evaluated using an analysis of variance (ANOVA) model that included treatment and investigator interactions.

[1] = iv infusion 0.3 μg/kg/min × 3 min
[2] = iv infusion 0.5 μg/kg/min × 3 min
[3] = iv infusion 1 μg/kg/min × 3 min

## Nc1nc(N/N=C/C2CCCCC2)nc2c1ncn2[C@@H]1O[C@H](CO)[C@@H](O)[C@H]1O (stereo in doubt) [Binodenoson, 2-{2-[(Cyclohexyl)methylene]hydrazino}adenosine]
1.5 and 3 μg/kg doses, infused over 3 minutes or as boluses
  maximal coronary hyperemia relative to CBFVR: equivalent to CBFVR
After drug administration
  onset of coronary hyperemic responses: evident within seconds of drug administration
All doses
  time for mean SBP, DBP, CVR, RPP and HR to return to near-baseline levels: approximately 15 minutes
All treatment groups
  time for CBFV to achieve nearly maximal levels: ≤ 3 min
  time of mean peak CBFV response: ≤ 6 min
both, human, in vivo
  adverse events rated mild in intensity: 84%
  adverse events rated moderate in intensity: 15%
  patients with decreases in SBP <80 mmHg or DBP <45 mmHg per group: 7-15%
  patients with hypotension (SBP decrease >20 mmHg or DBP decrease >15 mmHg) per dose group: 50-71%
  serious adverse events during the study: Seven serious adverse events occurred in 6 patients
Extrapolation of the decaying CBFV responses
  time for CBFV to return fully to baseline: ≤ 30 min
human, in vivo
  ECG changes: no adverse changes or trends in ECGs
  tolerability: well tolerated
Iv bolus 1.5 μg/kg
  % of CBFVR at peak Range: 45.8-156.6%
  CVR Maximum (mean ± SD): 1.7 ± 0.8 cm*mmHg/sec
  Duration (min) of hyperemia ≧85% of CBFVR Mean ± SD: 7.4 ± 6.86 min
  Duration (min) of hyperemia ≧85% of CBFVR Range: 1 to 21 min
  Peak CBFV Mean ± SD: 54.0 ± 19.9 cm/sec
  Peak CBFV Range: 21-96 cm/sec
  Time of peak CBFV Mean ± SD: 4.5 ± 3.7 min
  Time of peak CBFV Range: 1 to 15 min
  % of CBFVR at peak Mean ± SD: 90.6 ± 23.7%
Iv bolus 1.5 μg/kg, listed as binodenoson
  Duration (min) of hyperemia ≧85% of CBFVR Mean ± SD: 7.4 ± 6.86 min
Iv bolus 3 μg/kg
  % of CBFVR at peak Range: 44.4-130.5%
  CVR Maximum (mean ± SD): 1.6 ± 0.4 cm*mmHg/sec
  Duration (min) of hyperemia ≧85% of CBFVR Mean ± SD: 12.3 ± 9.59 min
  Duration (min) of hyperemia ≧85% of CBFVR Range: 2 to 39 min
  Peak CBFV Mean ± SD: 55.8 ± 14.6 cm/sec
  Peak CBFV Range: 35-94 cm/sec
  Time of peak CBFV Mean ± SD: 6.0 ± 3.8 min
  Time of peak CBFV Range: 1 to 14 min
  % of CBFVR at peak Mean ± SD: 99.9 ± 22.1%
Iv bolus 3 μg/kg, listed as binodenoson
  Duration (min) of hyperemia ≧85% of CBFVR Mean ± SD: 12.3 ± 9.59 min
[1]
  % of CBFVR at peak Range: 40.0-124.5%
  Duration (min) of hyperemia ≧85% of CBFVR Mean ± SD: 3.1 ± 1.97 min
  Duration (min) of hyperemia ≧85% of CBFVR Range: 1 to 8 min
  Peak CBFV Mean ± SD: 55.2 ± 21.0 cm/sec
  Peak CBFV Range: 17-122 cm/sec
  Time of peak CBFV Mean ± SD: 4.3 ± 2.8 min
  Time of peak CBFV Range: 1 to 12 min
  % of CBFVR at peak Mean ± SD: 83.5 ± 19.4%
Iv infusion 0.3 μg/kg/min × 3 min, CVR = ([SBP − DBP]/3 + DBP)/CBFV
  CVR Maximum (mean ± SD): 1.7 ± 0.6 cm*mmHg/sec
[2]
  % of CBFVR at peak Range: 52.2-288.1%
  CVR Maximum (mean ± SD): 1.9 ± 0.7 cm*mmHg/sec
  Duration (min) of hyperemia ≧85% of CBFVR Mean ± SD: 5.3 ± 4.53 min
  Duration (min) of hyperemia ≧85% of CBFVR Range: 1 to 14 min
  Peak CBFV Mean ± SD: 49.6 ± 20.4 cm/sec
  Peak CBFV Range: 26-135 cm/sec
  Time of peak CBFV Mean ± SD: 5.4 ± 5.9 min
  Time of peak CBFV Range: 1 to 30 min
  % of CBFVR at peak Mean ± SD: 95.0 ± 40.4%
[3]
  % of CBFVR at peak Range: 66.5-144.5%
  CVR Maximum (mean ± SD): 1.7 ± 0.6 cm*mmHg/sec
  Duration (min) of hyperemia ≧85% of CBFVR Mean ± SD: 10.9 ± 8.54 min
  Duration (min) of hyperemia ≧85% of CBFVR Range: 1 to 24 min
  Peak CBFV Mean ± SD: 53.1 ± 14.8 cm/sec
  Peak CBFV Range: 29-81 cm/sec
  Time of peak CBFV Mean ± SD: 5.8 ± 3.8 min
  Time of peak CBFV Range: 1 to 13 min
  % of CBFVR at peak Mean ± SD: 100.9 ± 22.1%
